Measurements as given in ChEMBL document CHEMBL1201862, “PubChem BioAssay data set” (2004).
Activity calls are given as the source filed them.

Legend:
[1] = target: Protein-tyrosine kinase 2-beta (Homo sapiens, UniProt Q14289);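 also: potency of inhibitors of PYK2 kinase phosphorylation of poly-GT substrate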
[2] = Luminescent dose response cell-based high throughput screening assay for inhibitors of the Janus kinase 2 mutant JAK2V617F. [Related pubchem assays: 1446 (Primary screen.), 1521 (Confirmation assay.), 1486 (Counter screen.)]; type: functional
[3] = target: T1, Heat shock factor protein 1 (Mus musculus, UniProt P38532); experiment: enhancement of HSF1-driven luciferase signal – cell-based, NIH3T3, luminescence, dose retest, confirmation (AID 435004); type: functional;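 also: stress induced by proteasome inhibitor MG132 added 30 min after compound; luciferase reporter driven by HSF1 response element in NIH3T3 cells; actives raise luminescence as potentiators of the MG132 stress response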
T1 sequence (P38532 whole entry): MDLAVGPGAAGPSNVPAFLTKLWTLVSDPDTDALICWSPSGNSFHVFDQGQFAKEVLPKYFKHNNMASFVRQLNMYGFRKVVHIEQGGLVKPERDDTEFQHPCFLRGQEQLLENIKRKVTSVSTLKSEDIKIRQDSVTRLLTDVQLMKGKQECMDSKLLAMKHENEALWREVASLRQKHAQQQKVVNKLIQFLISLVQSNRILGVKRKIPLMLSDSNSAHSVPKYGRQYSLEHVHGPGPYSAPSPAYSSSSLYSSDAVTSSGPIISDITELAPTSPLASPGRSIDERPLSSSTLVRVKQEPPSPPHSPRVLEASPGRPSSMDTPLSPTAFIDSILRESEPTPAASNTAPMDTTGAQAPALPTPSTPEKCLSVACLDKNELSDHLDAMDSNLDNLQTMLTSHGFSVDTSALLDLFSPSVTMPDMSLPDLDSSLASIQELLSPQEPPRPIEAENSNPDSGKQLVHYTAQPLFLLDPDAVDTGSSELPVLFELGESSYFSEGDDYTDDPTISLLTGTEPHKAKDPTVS

[4] = target: Bifunctional protein GlmU (Mycobacterium tuberculosis, UniProt P9WMN3); experiment: Inhibitors of Mycobacterial Glucosamine-1-phosphate acetyl transferase (GlmU). Secondary screen.; design: species or system Mycobacterium tuberculosis H37Rv
[5] = target: DNA dC->dU-editing enzyme APOBEC-3A (Homo sapiens, UniProt P31941); experiment: Dose Response confirmation of small molecule APOBEC3A DNA Deaminase Inhibitors via a fluorescence-based single-stranded DNA deaminase assay. [Related pubchem assays (depositor defined):AID493011, AID493024]; type: functional
[6] = target: DNA dC->dU-editing enzyme APOBEC-3G (Homo sapiens, UniProt Q9HC16); type: functional;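 also: Dose-response counterscreen measuring inhibition of APOBEC3G DNA deaminase activity, run while confirming APOBEC3A inhibitors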
[7] = target: T2, RNA-binding protein pos-1 (Caenorhabditis elegans, UniProt G5EF15); experiment: disruptors of C. elegans POS-1 RNA interaction – biochemical, fluorescence polarization, dose response (AID 1964);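 also: purified POS-1 fused to maltose binding protein made in E. coli; potency of compounds blocking POS-1 binding to fluorescent RNA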
T2 sequence (G5EF15 whole entry): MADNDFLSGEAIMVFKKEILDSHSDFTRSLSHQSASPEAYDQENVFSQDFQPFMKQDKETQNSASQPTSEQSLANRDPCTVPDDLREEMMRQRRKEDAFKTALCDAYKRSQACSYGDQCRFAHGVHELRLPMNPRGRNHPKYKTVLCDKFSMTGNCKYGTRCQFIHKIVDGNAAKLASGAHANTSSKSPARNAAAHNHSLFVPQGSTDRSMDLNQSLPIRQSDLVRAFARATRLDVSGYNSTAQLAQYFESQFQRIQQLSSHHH

[8] = target: T3, Histone-lysine N-methyltransferase NSD2 (Homo sapiens, UniProt O96028); type: biochemical
T3 sequence (O96028 whole entry): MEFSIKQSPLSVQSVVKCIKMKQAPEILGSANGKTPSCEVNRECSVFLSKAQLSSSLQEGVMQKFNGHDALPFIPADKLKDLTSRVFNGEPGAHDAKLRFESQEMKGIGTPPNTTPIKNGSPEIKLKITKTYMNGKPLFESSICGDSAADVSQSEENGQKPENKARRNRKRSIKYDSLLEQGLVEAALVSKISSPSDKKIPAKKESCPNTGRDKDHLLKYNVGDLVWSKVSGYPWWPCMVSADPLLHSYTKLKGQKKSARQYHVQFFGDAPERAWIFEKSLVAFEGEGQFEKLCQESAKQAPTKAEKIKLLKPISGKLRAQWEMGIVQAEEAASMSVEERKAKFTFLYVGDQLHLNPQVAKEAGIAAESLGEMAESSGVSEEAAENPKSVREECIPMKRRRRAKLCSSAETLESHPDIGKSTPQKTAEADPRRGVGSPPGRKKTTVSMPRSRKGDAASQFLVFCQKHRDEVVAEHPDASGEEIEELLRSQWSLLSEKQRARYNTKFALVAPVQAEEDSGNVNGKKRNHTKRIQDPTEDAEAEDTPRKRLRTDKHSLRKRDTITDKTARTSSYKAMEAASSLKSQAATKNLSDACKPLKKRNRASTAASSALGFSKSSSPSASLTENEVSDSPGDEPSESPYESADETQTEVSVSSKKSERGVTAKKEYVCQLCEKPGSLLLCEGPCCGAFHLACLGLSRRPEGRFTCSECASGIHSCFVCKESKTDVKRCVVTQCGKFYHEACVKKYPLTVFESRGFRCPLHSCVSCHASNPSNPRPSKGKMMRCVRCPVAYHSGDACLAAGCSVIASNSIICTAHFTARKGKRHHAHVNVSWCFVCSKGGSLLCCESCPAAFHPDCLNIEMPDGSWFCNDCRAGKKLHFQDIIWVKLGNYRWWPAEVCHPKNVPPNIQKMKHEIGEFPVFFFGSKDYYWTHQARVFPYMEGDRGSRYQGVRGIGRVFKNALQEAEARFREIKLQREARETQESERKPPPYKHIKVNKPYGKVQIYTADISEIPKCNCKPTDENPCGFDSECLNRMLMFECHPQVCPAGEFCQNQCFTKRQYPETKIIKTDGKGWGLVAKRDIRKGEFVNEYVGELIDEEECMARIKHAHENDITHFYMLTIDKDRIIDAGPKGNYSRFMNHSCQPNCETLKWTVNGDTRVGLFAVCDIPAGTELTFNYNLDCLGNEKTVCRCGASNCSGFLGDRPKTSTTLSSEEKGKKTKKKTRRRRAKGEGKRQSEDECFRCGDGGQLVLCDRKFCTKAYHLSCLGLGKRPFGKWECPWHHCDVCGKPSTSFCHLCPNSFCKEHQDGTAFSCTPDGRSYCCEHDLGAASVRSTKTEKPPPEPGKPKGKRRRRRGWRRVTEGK

[9] = target: T4, Carboxy-terminal domain RNA polymerase II polypeptide A small phosphatase 1 (Homo sapiens, UniProt Q9GZU7); experiment: CTDSP1 inhibitors, concentration-response, biochemical, absorbance readout, ultra-high-throughput screen actives (AID 540297); type: functional
T4 sequence (Q9GZU7 whole entry): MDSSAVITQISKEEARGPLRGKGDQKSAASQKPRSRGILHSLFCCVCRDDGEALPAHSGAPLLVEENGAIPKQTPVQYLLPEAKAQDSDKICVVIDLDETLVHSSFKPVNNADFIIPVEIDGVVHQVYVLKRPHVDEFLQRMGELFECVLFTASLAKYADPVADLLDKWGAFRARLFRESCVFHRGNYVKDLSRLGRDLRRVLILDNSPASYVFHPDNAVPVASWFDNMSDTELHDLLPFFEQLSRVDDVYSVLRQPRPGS

Cytochrome P450 2C9 = Cytochrome P450 2C9 (Homo sapiens, UniProt P11712)
Cytochrome P450 2C19 = Cytochrome P450 2C19 (Homo sapiens, UniProt P33261); experiment: Cytochrome panel assay with activity outcomes. Panel member name: p450-cyp2c19 Compounds with AC50 equal or less than 10 uM are considered active; type: functional; settings: read-out: AC50
Cytochrome P450 1A2 = target: T5, Cytochrome P450 1A2 (Homo sapiens, UniProt P05177);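 also: PubChem cytochrome P450 panel assay, CYP1A2 panel member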
T5 sequence (P05177 whole entry): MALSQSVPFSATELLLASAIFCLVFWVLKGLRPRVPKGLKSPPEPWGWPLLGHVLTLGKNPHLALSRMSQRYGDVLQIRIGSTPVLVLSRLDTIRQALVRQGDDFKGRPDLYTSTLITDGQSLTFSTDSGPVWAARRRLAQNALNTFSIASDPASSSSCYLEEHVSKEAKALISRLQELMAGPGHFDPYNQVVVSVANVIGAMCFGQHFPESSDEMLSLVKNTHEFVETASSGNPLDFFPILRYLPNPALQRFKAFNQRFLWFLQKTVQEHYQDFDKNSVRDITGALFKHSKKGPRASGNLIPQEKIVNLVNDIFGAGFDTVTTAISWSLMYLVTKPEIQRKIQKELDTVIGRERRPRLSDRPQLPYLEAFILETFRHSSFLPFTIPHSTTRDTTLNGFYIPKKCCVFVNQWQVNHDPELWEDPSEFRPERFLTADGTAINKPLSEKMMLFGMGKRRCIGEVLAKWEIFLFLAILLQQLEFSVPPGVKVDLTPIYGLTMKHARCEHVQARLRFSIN

Leucine aminopeptidase = target: T6, Leucine aminopeptidase (Plasmodium falciparum 3D7, UniProt Q8IL11); experiment: P. falciparum M17LAP inhibitors, primary screen, biochemical, fluorogenic H-Leu-NHMec substrate, 1536-well (AID 1619); type: functional
T6 sequence (Q8IL11 whole entry): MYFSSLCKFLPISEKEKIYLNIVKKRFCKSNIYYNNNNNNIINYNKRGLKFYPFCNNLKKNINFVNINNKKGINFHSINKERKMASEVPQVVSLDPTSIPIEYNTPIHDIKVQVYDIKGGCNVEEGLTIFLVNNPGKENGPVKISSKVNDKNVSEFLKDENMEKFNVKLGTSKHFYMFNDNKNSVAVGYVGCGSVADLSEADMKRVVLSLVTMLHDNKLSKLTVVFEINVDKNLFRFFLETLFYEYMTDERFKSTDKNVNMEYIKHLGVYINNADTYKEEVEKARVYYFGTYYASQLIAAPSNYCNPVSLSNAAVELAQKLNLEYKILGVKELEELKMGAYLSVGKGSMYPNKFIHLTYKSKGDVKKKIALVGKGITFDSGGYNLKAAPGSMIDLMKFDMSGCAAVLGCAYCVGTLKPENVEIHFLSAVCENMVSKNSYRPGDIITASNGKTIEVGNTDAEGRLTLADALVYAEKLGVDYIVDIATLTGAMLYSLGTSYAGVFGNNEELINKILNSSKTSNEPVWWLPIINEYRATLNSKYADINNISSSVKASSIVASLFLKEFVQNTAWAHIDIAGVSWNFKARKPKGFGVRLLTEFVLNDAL

[10] = target: T7, Mannose-6-phosphate isomerase (Homo sapiens, UniProt P34949); experiment: MPI enzyme activity inhibition – biochemical, fluorescence intensity, coupled assay, primary screen (AID 1209)
T7 sequence (P34949 whole entry): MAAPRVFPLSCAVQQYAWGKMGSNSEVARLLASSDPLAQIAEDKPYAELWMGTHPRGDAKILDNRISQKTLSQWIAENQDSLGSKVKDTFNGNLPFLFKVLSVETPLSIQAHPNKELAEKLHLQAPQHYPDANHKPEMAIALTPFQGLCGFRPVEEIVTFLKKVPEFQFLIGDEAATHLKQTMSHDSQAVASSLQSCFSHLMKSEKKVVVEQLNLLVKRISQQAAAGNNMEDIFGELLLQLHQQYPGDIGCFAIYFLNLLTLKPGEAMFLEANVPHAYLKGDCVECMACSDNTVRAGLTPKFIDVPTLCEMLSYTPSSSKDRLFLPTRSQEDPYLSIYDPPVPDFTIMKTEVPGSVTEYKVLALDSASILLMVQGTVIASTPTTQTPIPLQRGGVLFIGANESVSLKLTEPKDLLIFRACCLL

Chain of DNA dC->dU-editing enzyme APOBEC-3A (P31941 whole entry): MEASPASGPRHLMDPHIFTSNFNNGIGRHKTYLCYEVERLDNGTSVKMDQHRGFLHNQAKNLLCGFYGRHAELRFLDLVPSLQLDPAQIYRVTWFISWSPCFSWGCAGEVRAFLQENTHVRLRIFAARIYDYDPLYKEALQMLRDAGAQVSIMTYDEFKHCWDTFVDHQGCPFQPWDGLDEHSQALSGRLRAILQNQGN
Chain of DNA dC->dU-editing enzyme APOBEC-3G (Q9HC16 whole entry, the tested form may be a part): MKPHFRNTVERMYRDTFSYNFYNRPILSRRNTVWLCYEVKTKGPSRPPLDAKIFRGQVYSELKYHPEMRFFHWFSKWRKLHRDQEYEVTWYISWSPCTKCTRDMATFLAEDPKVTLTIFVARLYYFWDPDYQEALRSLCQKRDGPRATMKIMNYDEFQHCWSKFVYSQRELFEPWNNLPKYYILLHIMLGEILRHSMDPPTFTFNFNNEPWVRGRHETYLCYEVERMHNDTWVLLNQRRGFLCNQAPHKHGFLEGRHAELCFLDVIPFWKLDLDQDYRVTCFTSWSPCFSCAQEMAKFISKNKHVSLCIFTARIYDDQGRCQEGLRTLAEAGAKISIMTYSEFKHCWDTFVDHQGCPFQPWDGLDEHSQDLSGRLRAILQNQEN
Chain of Bifunctional protein GlmU (P9WMN3 whole entry): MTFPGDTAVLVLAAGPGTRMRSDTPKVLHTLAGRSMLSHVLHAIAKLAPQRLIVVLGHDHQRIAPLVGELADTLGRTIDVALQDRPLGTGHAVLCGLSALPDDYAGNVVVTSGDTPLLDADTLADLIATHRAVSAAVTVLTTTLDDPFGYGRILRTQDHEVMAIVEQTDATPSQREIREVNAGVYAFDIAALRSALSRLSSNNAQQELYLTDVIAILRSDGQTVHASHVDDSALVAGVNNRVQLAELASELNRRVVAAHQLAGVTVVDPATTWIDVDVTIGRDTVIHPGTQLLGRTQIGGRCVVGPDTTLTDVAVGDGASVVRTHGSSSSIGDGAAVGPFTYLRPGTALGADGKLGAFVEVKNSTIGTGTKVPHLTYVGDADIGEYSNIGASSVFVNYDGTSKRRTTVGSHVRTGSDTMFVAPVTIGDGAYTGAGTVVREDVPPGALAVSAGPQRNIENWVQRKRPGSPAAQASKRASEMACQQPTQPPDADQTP
Chain of Protein-tyrosine kinase 2-beta (Q14289 whole entry): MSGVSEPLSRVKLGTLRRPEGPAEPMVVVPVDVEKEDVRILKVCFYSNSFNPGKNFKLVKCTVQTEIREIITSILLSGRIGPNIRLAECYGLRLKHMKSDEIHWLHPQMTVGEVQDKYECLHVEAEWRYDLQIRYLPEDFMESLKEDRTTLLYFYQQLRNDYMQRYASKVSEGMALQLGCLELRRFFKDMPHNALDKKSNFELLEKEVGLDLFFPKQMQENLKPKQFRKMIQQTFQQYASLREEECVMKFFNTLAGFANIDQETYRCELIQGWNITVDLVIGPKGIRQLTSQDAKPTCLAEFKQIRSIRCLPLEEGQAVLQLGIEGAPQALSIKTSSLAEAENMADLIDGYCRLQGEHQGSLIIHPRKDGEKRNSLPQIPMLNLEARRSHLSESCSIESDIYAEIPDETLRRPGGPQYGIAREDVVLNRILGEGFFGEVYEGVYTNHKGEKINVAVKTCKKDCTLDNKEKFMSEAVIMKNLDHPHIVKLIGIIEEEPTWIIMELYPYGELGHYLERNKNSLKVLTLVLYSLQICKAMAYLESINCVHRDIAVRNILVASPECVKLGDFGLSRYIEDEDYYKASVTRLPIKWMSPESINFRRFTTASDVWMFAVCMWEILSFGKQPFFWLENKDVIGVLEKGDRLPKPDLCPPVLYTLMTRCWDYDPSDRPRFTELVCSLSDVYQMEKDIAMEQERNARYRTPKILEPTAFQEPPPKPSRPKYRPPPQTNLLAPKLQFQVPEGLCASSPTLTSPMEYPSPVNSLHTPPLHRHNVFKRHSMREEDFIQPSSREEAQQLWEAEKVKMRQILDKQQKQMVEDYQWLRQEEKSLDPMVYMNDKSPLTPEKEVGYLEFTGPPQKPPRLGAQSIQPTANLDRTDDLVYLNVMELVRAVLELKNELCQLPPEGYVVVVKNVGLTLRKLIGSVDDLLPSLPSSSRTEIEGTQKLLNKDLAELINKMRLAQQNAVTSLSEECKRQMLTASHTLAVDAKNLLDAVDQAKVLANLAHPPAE
Chain of Cytochrome P450 2C19 (P33261 whole entry): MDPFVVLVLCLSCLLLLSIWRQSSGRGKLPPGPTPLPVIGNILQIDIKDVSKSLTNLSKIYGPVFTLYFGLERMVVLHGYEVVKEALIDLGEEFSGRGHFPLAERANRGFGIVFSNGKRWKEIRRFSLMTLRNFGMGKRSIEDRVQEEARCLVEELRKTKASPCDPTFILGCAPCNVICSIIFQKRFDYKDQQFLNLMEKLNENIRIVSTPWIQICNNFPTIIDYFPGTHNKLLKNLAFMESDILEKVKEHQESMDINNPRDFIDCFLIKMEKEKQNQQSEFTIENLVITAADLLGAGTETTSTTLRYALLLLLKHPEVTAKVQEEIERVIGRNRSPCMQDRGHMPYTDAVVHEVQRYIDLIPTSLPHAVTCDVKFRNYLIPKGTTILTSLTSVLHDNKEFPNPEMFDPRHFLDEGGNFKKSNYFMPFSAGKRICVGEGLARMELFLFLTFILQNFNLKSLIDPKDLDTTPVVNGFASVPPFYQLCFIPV
Chain of Cytochrome P450 2C9 (P11712 whole entry): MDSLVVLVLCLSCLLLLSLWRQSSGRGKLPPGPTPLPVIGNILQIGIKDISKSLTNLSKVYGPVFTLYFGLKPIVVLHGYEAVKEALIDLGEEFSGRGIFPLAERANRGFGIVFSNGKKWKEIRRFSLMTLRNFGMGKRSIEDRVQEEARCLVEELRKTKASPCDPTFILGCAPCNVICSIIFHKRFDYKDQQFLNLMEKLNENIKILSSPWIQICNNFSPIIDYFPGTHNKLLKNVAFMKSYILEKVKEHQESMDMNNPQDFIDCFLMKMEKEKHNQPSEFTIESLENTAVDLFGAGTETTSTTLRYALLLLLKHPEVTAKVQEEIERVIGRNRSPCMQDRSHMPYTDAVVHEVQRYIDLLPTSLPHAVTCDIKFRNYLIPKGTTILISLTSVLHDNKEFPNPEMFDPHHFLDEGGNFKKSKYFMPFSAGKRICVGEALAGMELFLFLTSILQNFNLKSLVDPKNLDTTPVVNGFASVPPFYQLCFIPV

O=[N+]([O-])c1cccc(/C=C/c2nc3cc([N+](=O)[O-])ccc3[nH]2)c1
IC50 [1]: 20 µM (not active)

O=C(/C(=N/N=C/c1ccc(O)c(O)c1)c1ccccc1)c1ccccc1
IC50 [2]: 1.8 µM (active) | EC50 [3]: > 260 µM (inactive)

Cc1cc(/C=N/NC(=O)c2cccc(N(C)C)c2)c(C)n1-c1cc(C(=O)O)cc(C(=O)O)c1
IC50 [4]: 166 µM (active) | IC50 [5]: 9.31 µM (active) | IC50 [6]: 20.6 µM (active) | EC50 [7]: > 300 µM (not active) | AC50 [8]: > 20 µM (inactive) | IC50 [9]: 2.07 µM (active)

N#Cc1ccccc1/C=N/Nc1nc(-c2ccccc2)c2cc(Cl)ccc2n1
AC50 (Cytochrome P450 2C9): 2.24 µM (inconclusive) | AC50 (Cytochrome P450 2C19): 25.1 µM (inconclusive) | AC50 (Cytochrome P450 1A2): 7.08 µM (inconclusive) | IC50 [1]: > 69.5 µM (not active)

O=C(Nc1ccc(Oc2ccc(C(=O)O)c(C(=O)O)c2)cc1)c1cccs1
IC50 [4]: 97.3 µM (active) | IC50 (Leucine aminopeptidase): 30.7 µM (active)

C[N+]12CCC(CC1)C(C#N)(N1CCOCC1)C2 (centres undefined)
IC50 [10]: > 50 µM (not active) | IC50 [5]: 4.57 µM (active) | IC50 [6]: 4.38 µM (active)

COC(=O)COc1cccc2c(=O)n(CC(=O)NCc3ccc(F)cc3)ccc12
IC50 [2]: 1.14 µM (active)
